Assay results from ChEMBL document CHEMBL5726901, “Heterocyclic inhibitors of PTPN11” (2019).

Test: pERK AlphaScreen Protocol: KYSE-520 cells (10 k cells/well) were grown in 384-well plate in 20 uL of medium (RPMI-1640, without phenol red, containing 10% FBS) at 37° C. with 5% CO2 overnight. DMSO (control) or increasing concentrations of compounds were diluted in medium, added to the 384-well plate (5 uL/well, final DMSO concentration of 1%), and cells were then incubated with compounds for 2 hr. Phospho-ERK levels were measured using phospho-ERK1/2 AlphaScreen SureFire (PerkinElmer, TGRESB10K) following manufacturer's recommendations. Dose-response curves were analyzed using IC50 regression curve fitting (GeneData Screener). Curves were normalized to a high control without inhibitor (DMSO only), and low control (1 μM selumetinib).
Details: KYSE-520, 2 h

SMILES	IC50 [µM]
COc1ccc(CNc2nccc(C(=O)c3ncc(N4CCC(C)([C@@H](C)N[S+]([O-])C(C)(C)C)CC4)nc3Cl)c2Cl)cc1 (some centres not stated)	0.1
CC1(N)CCN(c2cnc3c(-c4cc(N)ccc4Cl)n[nH]c3n2)CC1	0.406
